Measured values published in US20100261682A1, “Method and Means for the Treatment of Cachexia” (Bioneris AB, priority 2007, published 2010).

How the values were obtained:
[1] = test system: gastrocnemius muscle protein synthesis and degradation; experiment: Protein synthesis and degradation in gastrocnemius muscle of MAC16 tumour-bearing mice; assay type: in vivo, NMRI mice; conditions: 40 mg/kg s.c., 3 times per day; p<0.001 vs control
Description: (§1) Administration of alpha-trinositol. Mice (n=6) bearing the MAC16 tumour were treated with AT (40 mg/kg) s.c., 3 times per day, for 5 days, while a control group received PBS. Protein synthesis and degradation were determined by the incorporation and release of L-[2,6-^3H]phenylalanine, as described in Smith et al., Cancer Res., 2005; 65:277-83. On the fourth day of treatment half of the group administered 0.4 mmol/L L-[2,6-^3H]phenylalanine in PBS (100 μl) by i.p. administration.
Protein analysis. After 24 h the animals were terminated and the gastrocnemius muscle was removed, washed with PBS and RPMI 1640, and the release of radioactivity during incubation for 2 h in RPMI 1640 was determined. Protein bound activity was determined by homogenising the muscles in 2% perchloric acid, and determining the radioactivity in the precipitate. Protein degradation was calculated by dividing the amount of radioactivity released into the medium over a 2 h period by the specific activity of the protein-bound radioactivity. To determine protein synthesis gastrocnemius muscles were incubated for 2 h in RMPI 1640, without phenol red, in the presence of L-[2,6-^3H]phenylalanine (37 MBq), and under an atmosphere of O2/CO2 (19:1). […] The rate of protein synthesis was calculated by dividing the protein-bound radioactivity by the acid-soluble material.

[2] = test system: 4E-BP1; experiment: Western blot of gastrocnemius muscle: phosphorylation of 4E-BP1; assay type: in vivo, NMRI mice; conditions: 40 mg/kg; 60% reduction in untreated tumour-bearing animals
Description: as §1
Western blot analysis Gastrocnemius muscle (10 mg) was homogenised in Phosphosafe™ Extraction Reagent (500 μl) and centrifuged at 15000 g for 15 min. Samples of the cytosolic proteins (5 μg) were loaded on either a 10% (mTOR, myosin, eIF4E and eIF4G) 12% (PKR, eIF2α and actin) or 15% (4E-BP1) sodium dodecylsulphate-polyacrylamide gel (SDS-PAGE) and electrophoresed at 180 V for approximately 1 h. The extent of phosphorylation of 4E-BP1, and the association of 4E-BP1 and eIF4G with eIF4E was determined by Western blotting when eIF4E was extracted from the muscle samples by m^7GTP-Sepharose 4B-affinity binding, as previously described Eley ey al., Biochem J., 2007; 407:113-20, by loading 20 μg of protein. […] Blots were scanned by a densitometer to quantify differences.

O=P(O)(O)O[C@@H]1[C@H](OP(=O)(O)O)[C@H](O)[C@@H](O)[C@H](O)[C@H]1OP(=O)(O)O [alpha-trinositol, 1-D-Myo-inositol 1,2,6-triphosphate]
decrease in protein degradation in the gastrocnemius muscle [1]: 20%
increase of protein synthesis in the gastrocnemius muscle [1]: 50%
tumour-induced reduction in phosphorylation of 4E-BP1 (Thr37/46) [2]: completely attenuated
